Values of other authors, collected in patent EP3332769A1, “SOLID ORAL PHARMACEUTICAL COMPOSITIONS OF TICAGRELOR” (Sanovel Ilac Sanayi ve Ticaret A.S., priority 2016, dated 2018).
≈ marks a conversion by molar mass, not a printed value.

Conditions: in water

**Q.** Which aqueous solubility does the source give for CCCSc1nc(N[C@@H]2C[C@H]2c2ccc(F)c(F)c2)c2nnn([C@@H]3C[C@H](OCCO)[C@@H](O)[C@H]3O)c2n1 [Ticagrelor, (1 S,2S,3R,5S)-3-[7-[(1 R,2S)-2-(3,4-Difluorophenyl)cyclopropylamino]-5-(propylthio)-3H-[1,2,3]triazolo[4,5-d]pyrimidin-3-yl] -5-(2-hydroxyethoxy) cyclopentane-1,2-diol] here?
**A.** 10 µg/mL (≈ 19.1 µM)
